Test system: SMS-KAN cell
Experiment: messenger RNA expression analysis, AceGene Human oligo chip 30 K, NR1I2-expressing clone B1 vs control clone
Format: cell-based
Details: 1st: Cy3-B1/Cy5-control
Description: The NR1I2 gene has been known as a transcriptional factor. Thus, it is possible to know what type of gene expression is controlled by obtaining messenger RNAs from cells causing NR1I2 protein expression and cells not causing such expression, and comparing the expression levels thereof with each other. As described above, the NR1I2 gene protein may have an effect of inhibiting cancer. […] Therefore, pCMV-Tag3 vector not containing a foreign gene as a control was introduced into SMS-KAN cell, and pCMV-Tag3-VP-NR1I2 containing the NR1I2 gene as a test sample was introduced into SMS-KAN cell. As a result, a control cell clone and a cell clone B1 permanently causing NR1I2 protein expression were obtained. Thereafter, analysis of messenger RNA expression was carried out using these two types of cells and an AceGene Human oligo chip 30 K (DNA Chip Research Inc.), with which the expression levels of 30,000 human genes can be observed (Inoue. J., et al. Am J. Pathol. 165. 71. 2004). A complementary strand DNA (complimentary DNA) was prepared, into which aminoallyl-dUTP (Ambion Inc.) was incorporated using an Oligo (dT) 12-18 primer. Then, the aminoallyl group was labeled with reactive Cy3 (cyanin 3) and Cy5 (cyanin 5) (Amersham Biosciences) via a coupling reaction. Hybridization was performed twice (1st: Cy3-B1/Cy5-control; 2nd: Cy5-B1/Cy3-control). Signals were measured using a GenePix 4000B (Axon Instruments) so as to be analyzed by GenePix Pro 4.1 software (Axon Instruments). Tables 3 and 4 are lists of genes, where in the cases of SMS-KAN cells into which the NR1I2 gene had been introduced in the two experiments, the expression levels were 1.5-fold or greater than the expression level in the case of a control cell clone.

## NR1I2 gene: human-derived gene, nuclear receptor subfamily 1, group I, member 2 (pregnane X receptor, PXR), nucleotide sequence SEQ ID NO: 1
  ADAMTS2 expression level Ratio 1st: 1.58
  ADNP expression level Ratio 1st: 1.61
  AP3S2 expression level Ratio 1st: 2.51
  APEG1 expression level Ratio 1st: 1.88
  APOA1 expression level Ratio 1st: 1.98
  APP expression level Ratio 1st: 2.03
  ARHC expression level Ratio 1st: 1.50
  ARL2 expression level Ratio 1st: 1.51
  ASCL2 expression level Ratio 1st: 2.43
  ASH1 expression level Ratio 1st: 1.81
  B4GALT5 expression level Ratio 1st: 1.54
  BARD1 expression level Ratio 1st: 1.90
  BCAT2 expression level Ratio 1st: 1.61
  BLP2 expression level Ratio 1st: 1.51
  BMP15 expression level Ratio 1st: 1.50
  C6orf25 expression level Ratio 1st: 1.74
  CCNA1 expression level Ratio 1st: 1.89
  CDC7L1 expression level Ratio 1st: 1.84
  CISH expression level Ratio 1st: 2.14
  CORO2A expression level Ratio 1st: 1.71
  Cab45 expression level Ratio 1st: 1.84
  DKFZp434G05 expression level Ratio 1st: 1.56
  DKKL1 expression level Ratio 1st: 1.53
  DNA12 expression level Ratio 1st: 1.52
  EPHX1 expression level Ratio 1st: 2.22
  ERCC1 expression level Ratio 1st: 1.82
  ETR101 expression level Ratio 1st: 1.65
  EXT1 expression level Ratio 1st: 1.87
  FLJ10737 expression level Ratio 1st: 1.51
  FLJ12389 expression level Ratio 1st: 2.16
  FLJ13197 expression level Ratio 1st: 2.95
  FLJ13479 expression level Ratio 1st: 1.92
  FLJ20288 expression level Ratio 1st: 1.81
  FLJ20555 expression level Ratio 1st: 1.51
  FLJ23462 expression level Ratio 1st: 1.64
  FOFR3 expression level Ratio 1st: 1.56
  GLI2 expression level Ratio 1st: 2.68
  GNE expression level Ratio 1st: 1.87
  GSTT2 expression level Ratio 1st: 3.23
  GUCY1A3 expression level Ratio 1st: 1.60
  HHEX expression level Ratio 1st: 1.55
  HNT expression level Ratio 1st: 1.55
  HPCL2 expression level Ratio 1st: 1.72
  ICAM5 expression level Ratio 1st: 1.52
  IFIT4 expression level Ratio 1st: 1.52
  INSL6 expression level Ratio 1st: 1.66
  IRC039700 expression level Ratio 1st: 2.12
  KCNJ15 expression level Ratio 1st: 1.88
  KIAA0161 expression level Ratio 1st: 1.54
  KIAA0212 expression level Ratio 1st: 2.01
  LBP-9 expression level Ratio 1st: 1.93
  LDB1 expression level Ratio 1st: 1.58
  LICAM expression level Ratio 1st: 1.87
  LILRB5 expression level Ratio 1st: 1.73
  LOC51024 expression level Ratio 1st: 1.67
  LRP8 expression level Ratio 1st: 1.52
  LZLP expression level Ratio 1st: 1.58
  MAFG expression level Ratio 1st: 2.51
  MGC2306 expression level Ratio 1st: 1.55
  MGC2941 expression level Ratio 1st: 1.90
  MPP6 expression level Ratio 1st: 1.67
  MT-ACT48 expression level Ratio 1st: 1.59
  OCM expression level Ratio 1st: 1.7
  OMP expression level Ratio 1st: 1.55
  OPA3 expression level Ratio 1st: 2.46
  ORC5L expression level Ratio 1st: 1.67
  ORM1 expression level Ratio 1st: 1.58
  PCDHA4 expression level Ratio 1st: 1.94
  PCDHB10 expression level Ratio 1st: 1.63
  PDCD8 expression level Ratio 1st: 2.00
  PFKFB4 expression level Ratio 1st: 4.90
  PGAM1 expression level Ratio 1st: 2.13
  PITPN expression level Ratio 1st: 1.73
  PLA2G2A expression level Ratio 1st: 3.01
  PLCE1 expression level Ratio 1st: 2.89
  PLEKHA1 expression level Ratio 1st: 1.54
  PRO2121 expression level Ratio 1st: 1.89
  PRO2831 expression level Ratio 1st: 1.51
  RDH5 expression level Ratio 1st: 1.62
  RP1 expression level Ratio 1st: 1.54
  RPL39L expression level Ratio 1st: 2.30
  RPS16 expression level Ratio 1st: 1.56
  SC65 expression level Ratio 1st: 1.56
  SCD expression level Ratio 1st: 1.74
  SCN2B expression level Ratio 1st: 1.52
  SLC22A11 expression level Ratio 1st: 1.66
  SNAP91 expression level Ratio 1st: 3.38
  STK11 expression level Ratio 1st: 1.62
  SURF1 expression level Ratio 1st: 1.92
  TCEA1 expression level Ratio 1st: 1.54
  TGM2 expression level Ratio 1st: 1.59
  TIMM10 expression level Ratio 1st: 1.87
  TLAL1 expression level Ratio 1st: 2.34
  TMPRSS4 expression level Ratio 1st: 1.55
  TOP3B expression level Ratio 1st: 1.59
  TPARL expression level Ratio 1st: 1.56
  TRPV4 expression level Ratio 1st: 1.77
  TSPAN-1 expression level Ratio 1st: 1.67
  UXT expression level Ratio 1st: 2.90
  WHSC2 expression level Ratio 1st: 1.65

— patent US20090011424A1, “Cancer-suppressing agents” (Tokyo Medical and Dental University, priority 2005, published 2009)
